Assay results from BindingDB's records for doi:10.1021/jm070133w (Nci-Fcrdc, 2007).

Target: T1, Glutamate carboxypeptidase 2 [44-750] (Homo sapiens, UniProt Q04609)
T1 construct: 44-750
Experiment: Determination of Inhibition Concentration Values (IC50)
Settings: pH 7.4; 37 °C
Procedure: The inhibition concentration values of GCPII were determined using the radioenzymatic assay with [3H] NAAG (radiolabeled on the terminal glutamate). The enzyme was preincubated in the presence of increasing concentrations of inhibitors in reaction buffer. The reaction was initiated by adding the substrate to the reaction mixtures. After 20 min, the reaction was terminated, and the glutamate was separated from the reaction mixture by ion-exchange chromatography and quantified by liquid scintillation. Duplicate reactions were carried out for each experimental point. The IC50 values were calculated from plots of Vi/V0 (ratio of individual reaction rates to the rate of an uninhibited reaction) versus inhibitor concentration using the GraFit program (version 5.0.4, Erithacus Software Limited).

T1 sequence (Q04609 44-750): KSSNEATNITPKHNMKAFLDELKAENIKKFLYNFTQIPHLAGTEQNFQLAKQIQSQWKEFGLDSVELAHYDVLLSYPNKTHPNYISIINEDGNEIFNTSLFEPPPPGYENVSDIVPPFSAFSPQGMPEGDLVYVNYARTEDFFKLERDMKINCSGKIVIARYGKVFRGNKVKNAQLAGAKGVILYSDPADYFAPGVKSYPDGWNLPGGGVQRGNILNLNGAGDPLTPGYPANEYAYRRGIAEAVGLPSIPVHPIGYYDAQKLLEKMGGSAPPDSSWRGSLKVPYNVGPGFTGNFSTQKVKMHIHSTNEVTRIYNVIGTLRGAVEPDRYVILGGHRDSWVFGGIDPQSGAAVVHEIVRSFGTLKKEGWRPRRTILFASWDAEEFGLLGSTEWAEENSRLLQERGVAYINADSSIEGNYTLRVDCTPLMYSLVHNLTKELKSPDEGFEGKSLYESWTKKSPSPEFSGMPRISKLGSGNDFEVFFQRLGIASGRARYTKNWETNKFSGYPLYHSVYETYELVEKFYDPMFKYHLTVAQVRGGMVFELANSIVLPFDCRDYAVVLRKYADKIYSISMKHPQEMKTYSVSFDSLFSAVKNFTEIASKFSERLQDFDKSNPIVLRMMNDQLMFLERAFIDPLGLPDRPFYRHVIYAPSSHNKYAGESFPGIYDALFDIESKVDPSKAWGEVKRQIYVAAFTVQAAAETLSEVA

Cc1onc(O)c1C[C@H](N)C(=O)O
IC50: > 10 mM
